Measured values published in ChEMBL document CHEMBL1126121, “Non-prostanoid thromboxane A2 receptor antagonists with a dibenzoxepin ring system. 1” (J Med Chem, 1992).
Values joined by “and” are separate entries in the source; they are usually repeats but may differ in a detail not shown here. Identical values can stand only once.

Tests used:
[1] = biological target: T1, Thromboxane A2 receptor (Homo sapiens) (UniProt P21731); test: Compound was tested for its binding affinity at Thromboxane A2 receptor by measuring its ability to displace [3H]U-46619 from guinea pig platelets; details: Cavia porcellus; target entry is the homologue from another species; concentration not given here
T1 sequence (whole entry): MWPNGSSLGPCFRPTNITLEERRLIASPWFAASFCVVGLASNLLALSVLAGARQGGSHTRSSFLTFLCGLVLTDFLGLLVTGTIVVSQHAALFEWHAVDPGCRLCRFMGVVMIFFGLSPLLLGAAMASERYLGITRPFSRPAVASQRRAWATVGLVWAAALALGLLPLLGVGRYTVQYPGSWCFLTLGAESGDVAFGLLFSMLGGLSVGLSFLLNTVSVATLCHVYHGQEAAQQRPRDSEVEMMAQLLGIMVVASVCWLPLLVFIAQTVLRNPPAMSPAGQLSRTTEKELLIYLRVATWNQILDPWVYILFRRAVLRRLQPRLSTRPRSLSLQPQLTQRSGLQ

[2] = biological target: T1, Thromboxane A2 receptor (Homo sapiens); test: Inhibitory effect against binding thromboxane A2 receptor on guinea pig platelets using [3H]U-46619 as radioligand at 1 uM concentration; details: Cavia porcellus, target entry is the homologue from another species
[3] = biological target: T1, Thromboxane A2 receptor (Homo sapiens); test: Compound was tested for its binding affinity at Thromboxane A2 receptor by measuring its ability to displace [3H]-U-46,619 from guinea pig platelets at 1 uM; details: Cavia porcellus, target entry is the homologue from another species
Cavia porcellus [4] = test: Compound was tested ex vivo for it's inhibition of U-46619 induced platelet aggregation in the guinea pig after 4 hr of administration at dose 10 mg/kg; type: functional
Cavia porcellus [5] = test: Inhibitory effect of the compounds on U-46619-induced platelet aggregation ex vivo in guinea pig at the dose of 10 mg/kg 2 hr after oral administration; type: functional
[6] = biological target: T1, Thromboxane A2 receptor (Homo sapiens); test: Binding affinity for thromboxane A2 receptor by measuring its ability to displace [3H]U-46619 from guinea pig platelets at 0.1 uM; details: Cavia porcellus, target entry is the homologue from another species
[7] = biological target: T1, Thromboxane A2 receptor (Homo sapiens); test: Binding affinity for thromboxane A2 receptor by measuring ability to displace [3H]U-46619 from guinea pig platelets at 1 uM; details: Cavia porcellus, target entry is the homologue from another species
Cavia porcellus [8] = test: Inhibitory effect of the compounds on U-46619-induced platelet aggregation ex vivo in guinea pig at the dose of 10 mg/kg 7 hr oral after administration; type: functional
[9] = tested on: Thromboxane-A synthase (Bos taurus); test: Inhibitory effect against thromboxane A2 synthase from bovine platelets at 10 uM concentration
[10] = biological target: T2, Thromboxane-A synthase (Homo sapiens) (UniProt P24557); test: Inhibitory activity against thromboxane A2 synthase obtained from bovine platelet microsomes at 10 uM; details: Bos taurus, target entry is the homologue from another species
T2 sequence (whole entry): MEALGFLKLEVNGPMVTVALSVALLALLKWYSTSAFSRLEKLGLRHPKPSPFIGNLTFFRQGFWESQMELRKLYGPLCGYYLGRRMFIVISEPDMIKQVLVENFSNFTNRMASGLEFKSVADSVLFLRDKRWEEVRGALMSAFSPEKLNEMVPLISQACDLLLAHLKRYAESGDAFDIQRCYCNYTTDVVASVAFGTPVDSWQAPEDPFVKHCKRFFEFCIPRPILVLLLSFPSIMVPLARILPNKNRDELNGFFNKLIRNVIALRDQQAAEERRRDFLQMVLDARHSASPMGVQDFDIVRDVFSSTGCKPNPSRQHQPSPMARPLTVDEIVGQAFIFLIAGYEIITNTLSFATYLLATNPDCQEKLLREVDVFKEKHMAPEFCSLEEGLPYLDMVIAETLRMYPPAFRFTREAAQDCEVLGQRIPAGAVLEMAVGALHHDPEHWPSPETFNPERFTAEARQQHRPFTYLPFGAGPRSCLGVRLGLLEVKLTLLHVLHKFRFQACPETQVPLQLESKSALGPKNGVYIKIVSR

Cavia porcellus [11] = test: Inhibitory effect of the compounds on U-46619-induced platelet aggregation ex vivo in guinea pig at the dose of 10 mg/kg 4 hr after oral administration; type: functional
Cavia porcellus [12] = test: Compound was tested ex vivo for it''s inhibition of U-46619 induced platelet aggregation in the guinea pig ex vivo after 7 hr of administration at dose 10 mg/kg; type: functional
Cavia porcellus [13] = test: Compound was tested ex vivo for it's inhibition of U-46619 induced platelet aggregation in the guinea pig after 2 hr of administration at dose 10 mg/kg; type: functional
Cavia porcellus [14] = test: Compound was tested ex vivo for it''s inhibition of U-46619 induced platelet aggregation in the guinea pig after 2 hr of administration at dose 10 mg/kg; type: functional
Cavia porcellus [15] = test: Compound was tested ex vivo for it''s inhibition of U-46619 induced platelet aggregation in the guinea pig after 4 hr of administration at dose 10 mg/kg; type: functional
Cavia porcellus [16] = test: Compound was tested ex vivo for it's inhibition of U-46619 induced platelet aggregation in the guinea pig after 4 hr of administration at dose 30 mg/kg; type: functional
Cavia porcellus [17] = test: Compound was tested ex vivo for it's inhibition of U-46619 induced platelet aggregation in the guinea pig after 2 hr of administration at dose 100 mg/kg; type: functional
Cavia porcellus [18] = test: Compound was tested ex vivo for it's inhibition of U-46619 induced platelet aggregation in the guinea pig after 2 hr of administration at dose 30 mg/kg; type: functional
Cavia porcellus [19] = test: Compound was tested ex vivo for it's inhibition of U-46619 induced platelet aggregation in the guinea pig after 4 hr of administration at dose 100 mg/kg; type: functional
Cavia porcellus [20] = test: Inhibitory effect of the compounds on U-46619-induced platelet aggregation ex vivo in guinea pig at the dose of 100 mg/kg 4 hr after oral administration; type: functional
Cavia porcellus [21] = test: Inhibitory effect of the compounds on U-46619-induced platelet aggregation ex vivo in guinea pig at the dose of 30 mg/kg 2 hr after oral administration; type: functional
Cavia porcellus [22] = test: Inhibitory effect of the compounds on U-46619-induced platelet aggregation ex vivo in guinea pig at the dose of 100 mg/kg 2 hr after oral administration; type: functional
Cavia porcellus [23] = test: Compound was tested ex vivo for it''s inhibition of U-46619 induced platelet aggregation in the guinea pig after 7 hr of administration at dose 10 mg/kg; type: functional
[24] = biological target: T1, Thromboxane A2 receptor (Homo sapiens); test: Compound was tested for its binding affinity at TXA2 receptor by measuring its ability to displace [3H]U-46619 from guinea pig platelets at 1 uM; details: Cavia porcellus, target entry is the homologue from another species

Row | SMILES | inhibition [2] | Aggregation (Cavia porcellus [4]) [%] | Platelet aggregation (Cavia porcellus [5]) [%] | inhibition [6] [%] | inhibition [7] [%] | inhibition [9] [%] | inhibition [10] [%] | Platelet aggregation (Cavia porcellus [11]) [%] | Aggregation (Cavia porcellus [13]) [%] | further results
1 | O=C(O)c1ccc2c(c1)C(SCCNS(=O)(=O)/C=C/c1ccccc1)c1ccccc1CO2 (racemic) [listing 1 of 2 here] | 97% | – | – | – | – | – | – | – | – | inhibition [1]: 92%; inhibition [3]: 97%
2 | O=C(O)c1ccc2c(c1)C(SCCNS(=O)(=O)c1cccs1)c1ccccc1CO2 (stereo unspecified) | 99% | 2.1 | 14.3 | 84 | 99 | 33 | 33 | 2.1 | 14.3 | Platelet aggregation (Cavia porcellus [8]): 12.3%; Aggregation (Cavia porcellus [12]): 12.3%
3 | O=C(O)c1ccc2c(c1)C(SCCNS(=O)(=O)/C=C/c1ccccc1)c1ccccc1CO2 (racemic) [listing 2 of 2 here] | – | 2.3 | – | – | – | – | – | – | 0 | Aggregation (Cavia porcellus [12]): 10.7%
4 | O=C(NCCSC1c2ccccc2COc2ccc(C(=O)O)cc21)OCc1ccccc1 (stereo unspecified) | 96% | – | 8.7 | 79 | 96 | 56 | 56 | 57.3 | – | Aggregation (Cavia porcellus [14]): 8.7%; Aggregation (Cavia porcellus [15]): 57.3%
5 | O=C(O)COc1ccc(CCNS(=O)(=O)c2ccccc2)cc1 [SULOTROBAN] | 31% | – | – | – | – | – | – | 87 | – | Aggregation (Cavia porcellus [16]): 87%; Aggregation (Cavia porcellus [17]): 12.7%; Aggregation (Cavia porcellus [18]): 28%; Aggregation (Cavia porcellus [19]): 57%; Platelet aggregation (Cavia porcellus [20]): 57%; Platelet aggregation (Cavia porcellus [21]): 28%; inhibition [1]: -5%; inhibition [3]: 31%; Platelet aggregation (Cavia porcellus [22]): 12.7%
6 | O=C(O)c1ccc2c(c1)C(SCCNS(=O)(=O)c1ccccc1)c1ccccc1CO2 (stereo unspecified) | 92% and 84% | 4.5 | 11.8 | 72 | 92 | – | – | 4.5 | 11.8 | Platelet aggregation (Cavia porcellus [8]): 12.3%; Aggregation (Cavia porcellus [23]): 12.3%
7 | O=C(O)c1ccc2c(c1)C(SCCNS(=O)(=O)c1ccc3ccccc3c1)c1ccccc1CO2 (stereo unspecified) | 95% | – | – | 77 | – | 38 | 38 | – | – | pInhibition [24]: 95%
